From patent US20010053351A1, “Inhibition of GSK-3 beta” (priority 1999, published 2001)

Columns and labels:
[1] = tested on: GSK-3β−/− cells; test: Cell death / viability (trypan blue) of GSK-3β-/- embryonic fibroblast cell lines; assay type: cell-based, mouse; conditions: anisomycin 0-5 μg/ml, sorbitol 0-1000 mM, daunorubicin 0-1000 ng/ml
Source text: To probe the mechanism by which GSK-3β impacted TNF cytotoxicity, immortalized mouse embryonic fibroblast (MEF) cell lines from two wild-type ([…]), two GSK-3β heterozygous (+/−1 and +/−2) and two GSK-3β homozygous mutant (−/−1 and −/−2) embryos were derived from embryos.
We next examined the sensitivity of the lines to TNF-induced cell death. […] As a reference, TNF receptor-associated factor 2 (TRAF2) homozygous mutant MEFs were used in the same assay.
Viability is expressed normalized to untreated controls. Independently derived GSK-3β^+/+ EF cell clones are indicated by +/+1 and +/+2; GSK-3β^+/− by +/−1 and +/−2; and GSK-3β^−/− by −/−1, and −/−2. […] Cells were uniformly treated with cycloheximide (CHX, 0.25 μg/ml). […] (C) Sensitivity of GSK-3β^−/− EF cells to various apoptotic stimuli. EF cells were stimulated with anisomycin (0-5 μg/ml), sorbitol (0-1000 mM), daunorubicin (0-1000 ng/ml), and γ-irradiation (0-50 Gy). All experiments were repeated at least three times, and the data (as a percentage) is shown as the mean ± standard error.

[2] = molecular target: GSK-3α (Homo sapiens, UniProt P49840); conditions: significant effects at concentrations of VPA similar to those attained clinically; cited from earlier work
GSK-3α, sequence (P49840 whole entry, species assumed): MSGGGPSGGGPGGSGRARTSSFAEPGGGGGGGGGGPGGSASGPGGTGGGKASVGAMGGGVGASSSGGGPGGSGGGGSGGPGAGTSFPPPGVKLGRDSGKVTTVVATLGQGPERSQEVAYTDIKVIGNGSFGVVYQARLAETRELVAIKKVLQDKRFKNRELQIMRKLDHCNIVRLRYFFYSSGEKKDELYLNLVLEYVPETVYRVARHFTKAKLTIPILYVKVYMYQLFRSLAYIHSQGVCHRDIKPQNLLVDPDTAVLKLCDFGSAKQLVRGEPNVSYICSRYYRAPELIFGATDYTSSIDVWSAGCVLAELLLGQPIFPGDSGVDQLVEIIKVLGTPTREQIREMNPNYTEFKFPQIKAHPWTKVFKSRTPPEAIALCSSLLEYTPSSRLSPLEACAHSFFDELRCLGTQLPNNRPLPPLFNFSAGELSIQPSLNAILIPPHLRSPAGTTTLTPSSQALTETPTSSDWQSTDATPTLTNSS

[3] = molecular target: GSK-3β (Homo sapiens, UniProt P49841); conditions: significant effects at concentrations of VPA similar to those attained clinically; cited from earlier work
GSK-3β, sequence (P49841 whole entry): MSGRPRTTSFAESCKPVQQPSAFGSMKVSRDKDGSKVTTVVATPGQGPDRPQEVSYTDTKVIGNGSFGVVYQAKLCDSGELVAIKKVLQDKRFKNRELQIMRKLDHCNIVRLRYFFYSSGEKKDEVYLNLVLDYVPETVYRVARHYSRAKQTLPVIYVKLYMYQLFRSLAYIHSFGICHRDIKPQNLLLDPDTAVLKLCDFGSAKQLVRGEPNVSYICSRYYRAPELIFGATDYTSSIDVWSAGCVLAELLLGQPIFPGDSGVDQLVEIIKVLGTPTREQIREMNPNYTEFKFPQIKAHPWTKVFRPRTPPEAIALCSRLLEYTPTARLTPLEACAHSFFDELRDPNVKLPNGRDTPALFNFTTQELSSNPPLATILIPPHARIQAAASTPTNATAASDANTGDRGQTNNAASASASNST

[4] = tested on: GSK-3; conditions: cited from earlier work

Compound	susceptibility of GSK-3β-deficient cells to apoptotic stimuli [1]	decrease of GSK-3 activity [4]	further results
OC[C@@H](O)[C@@H](O)[C@H](O)[C@@H](O)CO [sorbitol]	normal susceptibility	–	–
CCCC(CCC)C(=O)O [VPA, Valproic acid]	–	–	inhibition of GSK-3α [2]: inhibits; inhibition of GSK-3β [3]: inhibits
COc1cccc2c1C(=O)c1c(O)c3c(c(O)c1C2=O)C[C@@](O)(C(C)=O)C[C@@H]3O[C@H]1C[C@H](N)[C@H](O)[C@H](C)O1 [daunorubicin]	normal susceptibility	–	–
CC(C)NCC(O)c1ccc(O)c(O)c1 (stereo not shown) [Isoproterenol]	–	approximately 50%	–
COc1ccc(C[C@H]2NC[C@H](O)[C@H]2OC(C)=O)cc1 [anisomycin]	normal susceptibility	–	–
insulin	–	approximately 50%	–
